Experimental data from patent US20240316093A1, “NEPHROTOXICITY REDUCING AGENT” (NIPPON SHINYAKU CO., LTD., priority 2021, published 2024).

Legend:
[1] = system: C57BL/6J male mice; assay: BUN and Cre values in serum after tail-vein administration of PMO dosing solutions with or without sucrose (Example 2); settings: Example 2, PMO Nos. 8 and 9 with sucrose
Procedure: (§1) The obtained dosing solutions were administered into the tail vein of 6-week-old C57BL/6J male mice (N=3) at 10 and 12 mL/kg. Next day, serum was collected from the mice, and the blood urea nitrogen (BUN) values and blood creatinine (Cre) values were measured with the urease-GIDH method and the enzymatic method, respectively, using an automatic biochemical analyzer JCA-BM8060 (manufactured by JEOL Ltd.). […] Sections obtained by slicing the samples were subjected to hematoxylin-eosin staining and a histopathological test of the sections was performed.

[2] = system: C57BL/6J male mice; assay: BUN and Cre values in serum after tail-vein administration of PMO dosing solutions with or without sucrose or trehalose (Example 5); settings: Example 5, PMO Nos. 1, 8 and 9 with sucrose or trehalose
Procedure: Also, the antisense oligomers of PMO Nos. 1, 8, and 9 were each dissolved in water for injection comprising 0.9% sodium chloride, and a solution obtained by dissolving trehalose (manufactured by FUJIFILM Wako Pure Chemical Corporation) with physiological saline was added thereto to prepare a dosing solution comprising each of the antisense oligomers and trehalose at the concentrations shown in Tables 15 to 17.
The obtained dosing solutions were administered into the tail vein of 6-week-old C57BL/6J male mice (N=2 to 3) at 20 mL/kg. Next day, serum was collected from the mice, and the blood urea nitrogen (BUN) values and blood creatinine (Cre) values were measured with the urease-GIDH method and the enzymatic method, respectively, using an automatic biochemical analyzer JCA-BM8060 (manufactured by JEOL Ltd.).

[3] = system: kidney of C57BL/6J male mice; assay: Histopathological test of kidney (hematoxylin-eosin) after PMO No. 8 with or without sucrose (Example 2); settings: Example 2, histopathological test, PMO No. 8 with sucrose
Procedure: as §1

[4] = system: kidney of C57BL/6J male mice; settings: mouse, in vivo
Procedure: The obtained dosing solutions were administered into the tail vein of 6-week-old C57BL/6J male mice (N=5) at 20 mL/kg. Next day, the mice were subjected to autopsy, and formalin-fixed paraffin-embedded samples of the respective kidneys were prepared. Sections obtained by slicing the samples were subjected to hematoxylin-eosin staining and a histopathological test of the sections was performed.

[5] = Precipitation suppressing effect of trehalose, absorbance at 620 nm in the presence of ions assumed to be in urine (Example 7); assay type: physicochemical; settings: Example 7, PMO Nos. 1, 2, 7, 8; aqueous solution of trehalose versus water for injection; KCl and NaCl, 37° C.
Procedure: Each of the antisense oligomers was dissolved in water for injection or an aqueous solution of trehalose, and the mixture was then mixed with an aqueous solution comprising potassium chloride and sodium chloride assumed to be in urine. The absorbance at 620 nm of the solution thus mixed was measured using a plate reader, Infinite F200 Pro (manufactured by Tecan Group Ltd.) under the heating condition of 37° C. […] Accordingly, conditions were set under which the precipitation was observed using water for injection as a medium for each sequence. Another measurement was performed under the same conditions as obtained except that only the medium was changed to an aqueous solution of trehalose, and then the absorbance obtained under both the conditions was compared to each other. When the absorbance was increased, precipitation was determined to be observed, and a time until the precipitation was observed and the increased value of the absorbance were evaluated. When the aqueous solution of trehalose was used as the medium, it was determined that the precipitation suppressing effect was presented in a case where the time until the precipitation was observed was longer or in a case where the increased value of the absorbance was smaller than the case of using the water for injection as the medium.

SMILES	Nephrotoxicity reducing effect (BUN values and Cre values versus control dosing solution comprising no sucrose) [1]	Nephrotoxicity reducing effect (BUN values and Cre values versus dosing solution comprising neither sucrose nor trehalose) [2]	Amount of precipitates (basophilic substances in the lumens of renal tubules) [3]	Nephrotoxicity reducing effect (toxicological findings on the histopathological test of the kidney) [4]	Precipitation suppressing effect (time until the precipitation was observed, increase of the absorbance at 620 nm) [5]
OC[C@H]1O[C@@](CO)(O[C@H]2O[C@H](CO)[C@@H](O)[C@H](O)[C@H]2O)[C@@H](O)[C@@H]1O [sucrose]	confirmed to reduce nephrotoxicity	confirmed to reduce nephrotoxicity	amount of precipitates decreased according to the concentrations of sucrose	confirmed to reduce nephrotoxicity	–
OC[C@H]1O[C@H](O[C@H]2O[C@H](CO)[C@@H](O)[C@H](O)[C@H]2O)[C@H](O)[C@@H](O)[C@@H]1O [trehalose]	–	confirmed to reduce nephrotoxicity	–	–	suppress the precipitation of antisense oligomers
